The NIST ThermoML archive (doi:10.1016/j.jct.2016.07.015)
Several values for one entry are separate records, joined by “and”; a condition that tells them apart may be missing. Equal entries are not always repeated. ± gives the expanded uncertainty stated by the source.

Settings: Crystal, Calculated from knudsen effusion weight loss

SMILES: COc1cc(CO)ccc1O [4-hydroxy-3-methoxybenzyl alcohol]
- vapor or sublimation pressure (332.19 K): 0.000113 ± 6e-05 kPa and 0.0001121 ± 6e-05 kPa and 0.0001096 ± 6e-05 kPa
- vapor or sublimation pressure (334.36 K): 0.0001475 ± 6e-05 kPa and 0.0001466 ± 6e-05 kPa and 0.0001413 ± 6e-05 kPa
- vapor or sublimation pressure (336.15 K): 0.0001823 ± 6e-05 kPa and 0.0001755 ± 6e-05 kPa and 0.0001867 ± 6e-05 kPa
- vapor or sublimation pressure (338.21 K): 0.0002375 ± 6.1e-05 kPa and 0.0002339 ± 6.1e-05 kPa and 0.0002403 ± 6.1e-05 kPa
- vapor or sublimation pressure (340.27 K): 0.0003072 ± 6.1e-05 kPa and 0.0002982 ± 6.1e-05 kPa and 0.0003122 ± 6.1e-05 kPa
- vapor or sublimation pressure (342.14 K): 0.0003845 ± 6.2e-05 kPa and 0.0003697 ± 6.1e-05 kPa and 0.0003916 ± 6.2e-05 kPa
- vapor or sublimation pressure (344.21 K): 0.0005061 ± 6.3e-05 kPa and 0.0004935 ± 6.3e-05 kPa and 0.000506 ± 6.3e-05 kPa
- vapor or sublimation pressure (346.27 K): 0.0006422 ± 6.4e-05 kPa and 0.0006234 ± 6.4e-05 kPa and 0.0006502 ± 6.4e-05 kPa
- vapor or sublimation pressure (348.13 K): 0.0008066 ± 6.7e-05 kPa and 0.0007737 ± 6.6e-05 kPa and 0.0008145 ± 6.7e-05 kPa
- vapor or sublimation pressure (350.15 K): 0.001038 ± 9.5e-05 kPa and 0.001007 ± 9.3e-05 kPa and 0.001064 ± 9.7e-05 kPa
